Data reported in patent publication US4835185A, “Immunomodulator for improving commercial performance of domestic animals” (Iowa State University Research Foundation, Inc., priority 1987, dated 1989).

Assays:
[1] = Lamb trials: growth, feed efficiency, wool and carcass; type: in vivo, lambs (sheep)
Description: The lambs used in Trial 1 consisted of medium-frame crossbred wethers and ewes weighing 26 to 31 kg. The lambs used in Trial 2 consisted of medium-framced crossbred rams weighing 18 to 25 kg. Each animal was raised as a single. The lambs were housed in a temperature controlled room in individual pens with nipple waterers. When received, the lamps were vaccinated for enterotoxemia. They were allowed to adjust to the pens and the environment for 10 days. One day before the trial began, the lambs were sheared and placed on their respective dietary treatments. The lamps were allotted blocking by weight and sex into two dietary treatment groups. Growth and feed consumption were measured bi-weekly. All lamb weights were taken after a 12 to 16 hour fast. The animals were slaughtered at 50 kg in the Iowa State University Meat laboratory facilities at Ames, Iowa. At slaughter, the lamb's internal organs and wool were weighed and sampled, loin eye area and back fat measured, and carcasses separated into fat, lean, and bone.
The SMB (soybean meal-containing) and the CGM (corn-gluten-containing) diets (compositions given in Table A) were fed twice per day in quantities ensuring that feed was before the lambs at all times. The diets were calculated to be equivalent to each other with respect to metabolizable protein, ether extract, fiber, and minerals with the exception of calcium and phosphorus. […] The CGM diet was calculated to contain slightly more energy (TDN 81.7 vs. 79.0, NEm 1.88 v. 1.86, Neg. 1.23 vs. 1.22). […] The soybean meal ingredient contained about 3.5 wt % leucine, while the corn gluten meal ingredient contained about 15 wt % leucine. The CGM diet was therefore higher in leucine than the SBM diet, containing an estimated 16 wt % leucine as compared with an estimated 8 wt % leucine based on total crude protein in the diet.
^(1) Feed ingredients given on wt % basis.
^(3) Diets containing calcium salt of alphaketoisocaproate (KIC).
^(1) Statistical analysis: *designates p < .05, a significant
^(2) Average daily (24 hrs.) gain (kilograms).
^(3) Kilograms feed per kilogram weight gain.
^(4) Amount of wool in grams.
^(5) Amount of back fat in inches.
^(6) Amount of lean meat in kilograms.
^(1)- (8) See Table B, except cholesterol data is for lean tissue

[2] = test system: white blood cells; test: White blood cell number and differential, sheep (experiments 1 and 2); type: in vivo, lambs (sheep)
Procedure: A study was conducted to determine if KIC administration can alter white blood cell function, specifically T lymphocyte function, in growing sheep and cattle. Eighteen medium-framed crossbred male lambs were used in experiment 1. Lambs were randomly assigned to either a control diet (n=10) or a diet supplemented with 1% KIC (n=8). Animals were fed ad libitum in individual cages. At 100 and 108 days of treatment, 50-ml blood samples were collected for lymphocyte and neutrophil function tests.
In experiment 2, 19 intact crossbred male lambs were randomly assigned to either a saline treatment group (n=9) or a KIC treatment group (n=10). Control lambs were injected with 50 ml of a saline solution, and KIC treated lambs were injected with 50 ml of a 5% solution of KIC (sodium salt) daily (~2.5 g KIC/day). All injections were made intraperitoneally in the right posterior abdominal region after disinfection of the area. At day 60 and day 66 of treatment, blood was collected for lymphocyte and neutrophil function tests.
Sheep in experiments 1 and 2 were fed diets based on a mixture of 48% corn, 5% molasses, 20% alfalfa meal, 0.8% limestone, 0.6% salt-mineral-vitamin mix and ~25% of a protein supplement (either soybean meal, corn gluten meal, or corn gluten feed). The diets were isonitrogenous and analyzed to be ~20% crude protein and 89% dry matter. The KIC diet consisted of the basal diet to which was added 1% calcium-KIC, whereas the control diet was the basal diet plus 0.25% calcium carbonate.
Blood was collected by jugular venapuncture into acid-citrate-dextrose anticoagulant. Lymphocytes and neutrophils were isolated, and lymphocyte blastogenesis and neutrophil function evaluated. KIC was obtained from SOBAC, Paris, France. Zein was purchased from Freeman Industries, Tuckahoe, NY. Each experiment was statistically analyzed by analysis of variance. In sheep experiments, individual animals were the experimental units, whereas pen means were analyzed in the cattle experiment.
^2 Total white blood cell number (WBC) is the cells per mm^3.

In the case of `CC(C)CC(=O)C(=O)O` [KIC, alpha-ketoisocaproate], the “F/G: kilograms feed per kilogram weight gain” value ([1]; Trial 1, CGM diet, 1% KIC (0%: 4.53), * p<.05) is reported as 5.20, the “LEAN: amount of lean meat” value ([1]; Trial 1, CGM diet, 1% KIC (0%: 5.9)) is reported as 6.0 kilograms and the “WOOL: amount of wool” value ([1]; Trial 1, CGM diet, 1% KIC (0%: .158), * p<.05) is reported as “.167 grams”. The “BACK FAT: amount of back fat” value ([1]; Trial 1, CGM diet, 1% KIC (0%: .20)) was “.18 inches”, the “ADG: average daily (24 hrs.) gain” value ([1]; Trial 1, CGM diet, 1% KIC (0%: .37)) was “.30 kilograms” and the “F/G: kilograms feed per kilogram weight gain” value ([1]; Trial 1, SBM diet, 1% KIC (0%: 5.04), * p<.05) was 4.82. For the same compound, the “LEAN: amount of lean meat” value ([1]; Trial 1, SBM diet, 1% KIC (0%: 6.2)) was 6.8 kilograms, the “WOOL: amount of wool” value ([1]; Trial 1, SBM diet, 1% KIC (0%: .176), * p<.05) was “.216 grams” and the “BACK FAT: amount of back fat” value ([1]; Trial 1, SBM diet, 1% KIC (0%: .26)) was “.22 inches”. For the same compound, the “ADG: average daily (24 hrs.) gain” value ([1]; Trial 1, SBM diet, 1% KIC (0%: .33)) was “.36 kilograms”, the “F/G: kilograms feed per kilogram weight gain” value ([1]; Trial 2, CGM diet, 1% KIC (0%: 4.17)) was 4.35 and the “LEAN: amount of lean meat” value ([1]; Trial 2, CGM diet, 1% KIC (0%: 6.1)) was 5.8 kilograms. For the same compound, the “WOOL: amount of wool” value ([1]; Trial 2, CGM diet, 1% KIC (0%: .262), * p<.05) was “.294 grams”, the “BACK FAT: amount of back fat” value ([1]; Trial 2, CGM diet, 1% KIC (0%: .29)) was “.20 inches” and the “ADG: average daily (24 hrs.) gain” value ([1]; Trial 2, CGM diet, 1% KIC (0%: .333), * p<.05) was “.308 kilograms”. The “F/G: kilograms feed per kilogram weight gain” value ([1]; Trial 2, SBM diet, 1% KIC (0%: 4.76), * p<.05) was 4.17, the “LEAN: amount of lean meat” value ([1]; Trial 2, SBM diet, 1% KIC (0%: 5.9)) was 5.4 kilograms and the “WOOL: amount of wool” value ([1]; Trial 2, SBM diet, 1% KIC (0%: .213), * p<.05) was “.267 grams”. The “BACK FAT: amount of back fat” value ([1]; Trial 2, SBM diet, 1% KIC (0%: .26)) was “.21 inches”, the “ADG: average daily (24 hrs.) gain” value ([1]; Trial 2, SBM diet, 1% KIC (0%: .304), * p<.05) was “.339 kilograms” and the “% SEG” value ([2]; Exp. 1, oral uncoated KIC 1% (control 38), p<.89) was 39% of Total WBC. For the same compound, the “% LYM” value ([2]; Exp. 1, oral uncoated KIC 1% (control 61), p<.34) was 59% of Total WBC, the “% EOS” value ([2]; Exp. 1, oral uncoated KIC 1% (control .7), p<.12) was 1.7% of Total WBC and the “% EOS” value ([2]; Exp. 2, IP injected KIC (saline 3.4), p<.01) was 1.7% of Total WBC. For the same compound, the “% SEG” value ([2]; Exp. 2, IP injected KIC (saline 41), p<.13) was 34% of Total WBC and the “% LYM” value ([2]; Exp. 2, IP injected KIC (saline 48), p<.04) was 61% of Total WBC.
